The record followed here is US20260297081A1, “COMPOUNDS AND METHODS OF TREATING CANCERS” (Cullgen Inc., priority 2023, published 2026).

The target of this experiment is CDK4 (Homo sapiens, UniProt P11802+Q16531). In words: CDK4 percentage degradation in Calu-1 cells (Table 6). The experiment is classed as cell-based. Details: Cells that express cyclin D1-3 and CDK4/6 proteins were treated with heterobifunctional compounds; endogenous in cells; host or cells: Calu-1. To be noted: 16 hours; for inhibition at 0.04 µM: 40 nM; for inhibition at 0.2 µM: 200 nM. An outline of the steps: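 Calu-1 cells exposed to heterobifunctional compounds at 40 nM or 200 nM for 16 h. Cyclin D1 and CDK4 levels measured by Western blot of RIPA lysates (BCA-normalised loading), bands quantified by densitometry and expressed as percentage degradation.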
Sequence of CDK4 (P11802 2-303 limits assumed): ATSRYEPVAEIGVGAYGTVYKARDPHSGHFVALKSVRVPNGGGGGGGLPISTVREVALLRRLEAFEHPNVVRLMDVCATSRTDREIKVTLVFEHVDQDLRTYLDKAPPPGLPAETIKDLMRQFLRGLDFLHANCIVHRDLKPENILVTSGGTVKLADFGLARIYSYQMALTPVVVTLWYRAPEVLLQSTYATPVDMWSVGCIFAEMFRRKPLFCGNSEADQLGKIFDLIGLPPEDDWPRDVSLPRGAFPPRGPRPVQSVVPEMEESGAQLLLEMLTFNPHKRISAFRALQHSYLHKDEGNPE
Sequence of CDK4 (P24385 whole entry partner): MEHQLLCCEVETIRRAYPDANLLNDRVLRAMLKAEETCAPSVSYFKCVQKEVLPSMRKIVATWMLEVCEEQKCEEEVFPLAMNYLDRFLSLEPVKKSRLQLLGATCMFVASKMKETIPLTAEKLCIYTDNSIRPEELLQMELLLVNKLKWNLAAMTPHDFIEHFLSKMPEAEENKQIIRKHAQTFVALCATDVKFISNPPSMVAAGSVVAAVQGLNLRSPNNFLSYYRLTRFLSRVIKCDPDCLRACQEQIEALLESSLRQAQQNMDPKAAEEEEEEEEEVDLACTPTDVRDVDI
Sequence of CDK4 (Q16531 2-1140 limits assumed): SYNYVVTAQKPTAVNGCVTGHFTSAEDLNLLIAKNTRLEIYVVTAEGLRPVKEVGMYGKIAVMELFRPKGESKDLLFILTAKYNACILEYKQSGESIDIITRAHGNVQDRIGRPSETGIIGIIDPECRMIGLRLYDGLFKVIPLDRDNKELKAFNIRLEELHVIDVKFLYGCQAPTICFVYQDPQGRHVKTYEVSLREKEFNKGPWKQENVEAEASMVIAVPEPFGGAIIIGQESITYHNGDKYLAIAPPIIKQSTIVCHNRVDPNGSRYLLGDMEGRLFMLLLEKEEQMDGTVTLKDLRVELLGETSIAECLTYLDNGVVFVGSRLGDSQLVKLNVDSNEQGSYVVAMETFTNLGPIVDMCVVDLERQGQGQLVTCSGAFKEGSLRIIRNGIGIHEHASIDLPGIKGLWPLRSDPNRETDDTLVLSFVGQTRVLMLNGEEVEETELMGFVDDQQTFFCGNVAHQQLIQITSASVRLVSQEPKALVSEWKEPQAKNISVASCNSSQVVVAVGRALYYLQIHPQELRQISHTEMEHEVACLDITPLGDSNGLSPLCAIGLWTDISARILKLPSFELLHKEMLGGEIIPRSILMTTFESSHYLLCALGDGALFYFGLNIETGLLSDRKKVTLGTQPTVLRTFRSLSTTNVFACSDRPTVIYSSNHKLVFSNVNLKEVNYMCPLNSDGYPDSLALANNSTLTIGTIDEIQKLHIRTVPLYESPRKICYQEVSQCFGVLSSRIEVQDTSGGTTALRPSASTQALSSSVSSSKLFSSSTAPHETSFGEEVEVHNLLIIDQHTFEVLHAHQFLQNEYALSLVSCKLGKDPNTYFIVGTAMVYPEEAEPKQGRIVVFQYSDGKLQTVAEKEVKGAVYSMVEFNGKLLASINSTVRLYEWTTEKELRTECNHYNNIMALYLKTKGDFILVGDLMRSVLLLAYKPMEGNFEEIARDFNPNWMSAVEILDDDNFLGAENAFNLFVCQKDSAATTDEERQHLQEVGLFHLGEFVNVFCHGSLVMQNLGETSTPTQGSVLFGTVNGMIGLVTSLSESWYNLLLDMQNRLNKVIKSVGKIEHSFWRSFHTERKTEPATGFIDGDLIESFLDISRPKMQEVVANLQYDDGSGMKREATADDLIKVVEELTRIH

One may read the inhibition as the percentage by which the read-out fell short of the control. Read a low inhibition as little suppression. Regarding `CNc1ccc(C(=O)Nc2ccc(N(C)C)nn2)c(NC2CC3(CC(NCC(=O)N4CCN(c5ccc(Nc6ncc7c(C)c(C(C)=O)c(=O)n(C8CCCC8)c7n6)nc5)CC4)C3)C2)n1` (stereo not shown) [CPD-78, 2-((6-((2-(4-(6-((6-Acetyl-8-cyclopentyl-5-methyl-7-oxo-7,8-dihydropyrido[2,3-d]pyrimidin-2-yl)amino)pyridin-3-yl)piperazin-1-yl)-2-oxoethyl)amino)spiro[3.3]heptan-2-yl)amino)-N-(6-(dimethylamino)pyridazin-3-yl)-6-(methylamino)nicotinamide], the inhibition at 0.04 µM lay within 50 to 80% and the inhibition at 0.2 µM was in the range of 50 to 80%.

`CNc1ccc(C(=O)Nc2ccc(N(C)C)nn2)c(NC2CC3(CC(CCC(=O)N4CCN(c5ccc(Nc6ncc7c(C)c(C(C)=O)c(=O)n(C8CCCC8)c7n6)nc5)CC4)C3)C2)n1` (stereo not shown) [CPD-82, 2-((6-(3-(4-(6-((6-Acetyl-8-cyclopentyl-5-methyl-7-oxo-7,8-dihydropyrido[2,3-d]pyrimidin-2-yl)amino)pyridin-3-yl)piperazin-1-yl)-3-oxopropyl)spiro[3.3]heptan-2-yl)amino)-N-(6-(dimethylamino)pyridazin-3-yl)-6-(methylamino)nicotinamide]: the inhibition at 0.04 µM lay within 30 to 50% and the inhibition at 0.2 µM lay within 30 to 50%.

`CNc1ccc(C(=O)Nc2ccc(N(C)C)nn2)c(NC2CC3(CC(CCCN4CCN(c5ccc(Nc6ncc7c(C)c(C(C)=O)c(=O)n(C8CCCC8)c7n6)nc5)CC4)C3)C2)n1` (stereo not shown) [CPD-83, 2-((6-(3-(4-(6-((6-Acetyl-8-cyclopentyl-5-methyl-7-oxo-7,8-dihydropyrido[2,3-d]pyrimidin-2-yl)amino)pyridin-3-yl)piperazin-1-yl)propyl)spiro[3.3]heptan-2-yl)amino)-N-(6-(dimethylamino)pyridazin-3-yl)-6-(methylamino)nicotinamide]: the inhibition at 0.04 µM was less than 30% and the inhibition at 0.2 µM lay in the range of 30 to 50%.

For `CNc1ccc(C(=O)Nc2ccnc(C3CC3)c2)c(NC2CC3(CC(NC(=O)CN4CCN(c5ccc(Nc6ncc7c(C)c(C(C)=O)c(=O)n(C8CCCC8)c7n6)nc5)CC4)C3)C2)n1` (stereo not shown) [CPD-86, 2-((6-(2-(4-(6-((6-Acetyl-8-cyclopentyl-5-methyl-7-oxo-7,8-dihydropyrido[2,3-d]pyrimidin-2-yl)amino)pyridin-3-yl)piperazin-1-yl)acetamido)spiro[3.3]heptan-2-yl)amino)-N-(2-cyclopropylpyridin-4-yl)-6-(methylamino)nicotinamide], the inhibition at 0.04 µM was less than 30% and the inhibition at 0.2 µM is less than 30%.

With `CNc1ccc(C(=O)Nc2ccc(C(F)(F)F)c(C3CC3)n2)c(NC2CC3(CC(NC(=O)CN4CCN(c5ccc(Nc6ncc7c(C)c(C(C)=O)c(=O)n(C8CCCC8)c7n6)nc5)CC4)C3)C2)n1` (stereo not shown) [CPD-87, 2-((6-(2-(4-(6-((6-Acetyl-8-cyclopentyl-5-methyl-7-oxo-7,8-dihydropyrido[2,3-d]pyrimidin-2-yl)amino)pyridin-3-yl)piperazin-1-yl)acetamido)spiro[3.3]heptan-2-yl)amino)-N-(6-cyclopropyl-5-(trifluoromethyl)pyridin-2-yl)-6-(methylamino)nicotinamide], the inhibition at 0.04 µM was less than 30% and the inhibition at 0.2 µM is less than 30%.

On to `CNc1ccc(C(=O)Nc2cccc(N(C)C)n2)c(NC2CC3(CC(NC(=O)CN4CCN(c5ccc(Nc6ncc7c(C)c(C(C)=O)c(=O)n(C8CCCC8)c7n6)nc5)CC4)C3)C2)n1` (stereo not shown) [CPD-88, 2-((6-(2-(4-(6-((6-Acetyl-8-cyclopentyl-5-methyl-7-oxo-7,8-dihydropyrido[2,3-d]pyrimidin-2-yl)amino)pyridin-3-yl)piperazin-1-yl)acetamido)spiro[3.3]heptan-2-yl)amino)-N-(6-(dimethylamino)pyridin-2-yl)-6-(methylamino)nicotinamide], for which the inhibition at 0.04 µM was in the range of 30 to 50% and the inhibition at 0.2 µM was in the range of 50 to 80%.

Compound `CNc1ccc(C(=O)Nc2ccc(N(C)C)nn2)c(NCCC2CCN(C(=O)CN3CCN(c4ccc(Nc5ncc6c(C)c(C(C)=O)c(=O)n(C7CCCC7)c6n5)nc4)CC3)CC2)n1` [CPD-89, 2-((2-(1-(2-(4-(6-((6-Acetyl-8-cyclopentyl-5-methyl-7-oxo-7,8-dihydropyrido[2,3-d]pyrimidin-2-yl)amino)pyridin-3-yl)piperazin-1-yl)acetyl)piperidin-4-yl)ethyl)amino)-N-(6-(dimethylamino)pyridazin-3-yl)-6-(methylamino)nicotinamide] gave an inhibition at 0.04 µM of 50 to 80% and an inhibition at 0.2 µM of 50 to 80%.

The compound `CNc1ccc(C(=O)Nc2cccc(C#N)n2)c(NC2CC3(CC(NC(=O)CN4CCN(c5ccc(Nc6ncc7c(C)c(C(C)=O)c(=O)n(C8CCCC8)c7n6)nc5)CC4)C3)C2)n1` (stereo not shown) [CPD-90, 2-((6-(2-(4-(6-((6-Acetyl-8-cyclopentyl-5-methyl-7-oxo-7,8-dihydropyrido[2,3-d]pyrimidin-2-yl)amino)pyridin-3-yl)piperazin-1-yl)acetamido)spiro[3.3]heptan-2-yl)amino)-N-(6-cyanopyridin-2-yl)-6-(methylanino)nicotinamide] gave an inhibition at 0.04 µM of less than 30% and an inhibition at 0.2 µM of 50 to 80%.

On to `CNc1ccc(C(=O)Nc2cccc(C(F)(F)F)n2)c(NC2CC3(CC(NC(=O)CN4CCN(c5ccc(Nc6ncc7c(C)c(C(C)=O)c(=O)n(C8CCCC8)c7n6)nc5)CC4)C3)C2)n1` (stereo not shown) [CPD-91, 2-((6-(2-(4-(6-((6-Acetyl-8-cyclopentyl-5-methyl-7-oxo-7,8-dihydropyrido[2,3-d]pyrimidin-2-yl)amino)pyridin-3-yl)piperazin-1-yl)acetamido)spiro[3.3]heptan-2-yl)amino)-6-(methylamino)-N-(6-(trifluoromethyl)pyridin-2-yl)nicotinamide], for which the inhibition at 0.04 µM is less than 30% and the inhibition at 0.2 µM was in the range of 30 to 50%.

Consider `CNc1ccc(C(=O)Nc2cc(C)[nH]n2)c(NC2CC3(CC(NC(=O)CN4CCN(c5ccc(Nc6ncc7c(C)c(C(C)=O)c(=O)n(C8CCCC8)c7n6)nc5)CC4)C3)C2)n1` (stereo not shown) [CPD-92, 2-((6-(2-(4-(6-((6-Acetyl-8-cyclopentyl-5-methyl-7-oxo-7,8-dihydropyrido[2,3-d]pyrimidin-2-yl)amino)pyridin-3-yl)piperazin-1-yl)acetamido)spiro[3.3]heptan-2-yl)amino)-N-(5-methyl-1H-pyrazol-3-yl)-6-(methylamino)nicotinamide], for which the inhibition at 0.04 µM was less than 30% and the inhibition at 0.2 µM is less than 30%.

For `CNc1ccc(C(=O)Nc2ccn(C)n2)c(NC2CC3(CC(NC(=O)CN4CCN(c5ccc(Nc6ncc7c(C)c(C(C)=O)c(=O)n(C8CCCC8)c7n6)nc5)CC4)C3)C2)n1` (stereo not shown) [CPD-93, 2-((6-(2-(4-(6-((6-Acetyl-8-cyclopentyl-5-methyl-7-oxo-7,8-dihydropyrido[2,3-d]pyrimidin-2-yl)amino)pyridin-3-yl)piperazin-1-yl)acetamido)spiro[3.3]heptan-2-yl)amino)-N-(1-methyl-1H-pyrazol-3-yl)-6-(methylamino)nicotinamide], the inhibition at 0.04 µM is 30 to 50% and the inhibition at 0.2 µM lay within 50 to 80%.
